Measured values from patent US12642806B2, “Cannabidiol compositions for use in treating heart conditions” (CARDIOL THERAPEUTICS INC., priority 2019, dated 2026).

Assays:
[1] = system: mouse model of non-ischemic heart failure (HF); assay: Mouse model of non-ischemic heart failure (L-NAME/NaCl + Angiotensin II); type: in vivo, C57BL/6 laboratory mice; conditions: for cardiac fibrosis (Masson's Trichrome) / myocyte area (hypertrophy): 4 weeks, vs Angiotensin group; for mRNA expression of BNP in heart tissue (qPCR): compared with ANG group
Experimental: Tests were done to evaluate the potential for CBD in treating or preventing heart failure in a mouse model of non-ischemic heart failure (HF) illustrated in FIG. 5.
Three to four week old male C57BL/6 laboratory mice were used in the experiments. The mice were divided into four groups. A first group (the Control) received nothing. The second group of mice (Angiotensin) was provided with water containing 0.1 mg/ml of N(gamma)-nitro-L-arginine methyl ester (L-NAME) and 1% sodium chloride (NaCl) ad libitum for one week. Following this, 0.7 mg/kg/week of Angiotensin II was administered subcutaneously for 4 weeks using osmotic pumps. The third group and fourth group were subjected to the same protocol as the second group, however, the third group (ANG+CBD 1 mg/kg) and fourth group (ANG+CBD 10 mg/kg) also received synthetic CBD subcutaneously in an amount of 1 mg/kg and 10 mg/kg, respectively, once every 3 days during the same four week period. The CBD compositions used in this experiment consisted of CBD dissolved in PEG400.
After four weeks of treatment, cardiac tissue was evaluated for fibrosis and myocyte hypertrophy and changes in remodeling and inflammation biomarkers.

[2] = system: human monocytes; assay: CD69 expression by ionomycin/PMA-activated human monocytes (flow cytometry); type: cell-based; conditions: CBD 5 μg/mL or greater, added 15 minutes before 4 hours stimulation with ionomycin 1 μg/ml and PMA 50 ng/ml
Experimental: (§1) A further study was performed to determine the effect of CBD on the expression of CD69 (a marker of leukocyte activation) by human lymphocytes and monocytes that had been activated by ionomycin (1 μg/mL) and phorbol myristate acetate (PMA, 50 ng/mL) in vitro.
(§2) Mononuclear cells from a healthy human donor were isolated using a gradient method with Ficoll-Pacque™ Healthcare. Cells were washed with RPMI media with 10% FCS and 1% Penn/Strept and then placed in 12 well trays at 1×10^6 cells/mL and stimulated for 4 hours with Ionomycin 1 μg/ml and 50 ng/ml PMA. CBD was added 15 minutes before using DMSO as a vehicle. After the stimulation, cells were washed again and resuspended in 150 μL staining buffer (PBS+1% BSA). An optimized protocol for surface marker staining was used. CD69 was added to the cells, which were then incubated for 15 minutes in the dark at room temperature. After this, cells were washed twice with PBS+1% BSA and resuspended in 150 μL buffer. Cells were kept at 4 degrees prior to being analyzed in a FACSCanto™ II cytometer. Cell populations were determined by FSC/SSC. The number of events were at least 2000 events per gate. […] The data was analyzed with FlowJo X. Doublets were discriminated with an exclusion gate of FSC-A/FSC-W. Gating for lymphocytes and monocytes was determined by FSC-A/SSC-A. The frequency and expression of CD69-FITC was analyzed in its FITC channel.

[3] = taken orally; background statement; cited from earlier work
[4] = system: human lymphocytes; assay: CD69 expression by ionomycin/PMA-activated human lymphocytes (flow cytometry); type: cell-based; conditions: CBD 5 μg/mL or greater, added 15 minutes before 4 hours stimulation with ionomycin 1 μg/ml and PMA 50 ng/ml
Experimental: as §1, §2

[5] = system: H9c2 cells; assay: Angiotensin II-mediated cardiomyocyte hypertrophy in H9c2 cells, cell surface area (calcein, confocal microscopy); type: cell-based; conditions: compared with Ang group
Experimental: A study was conducted to determine the effect of CBD in a model of cardiomyocyte hypertrophy, using H9c2 cells, a cardiomyocyte cell line, in vitro. In this study, H9c2 cells grown in a culture medium were divided into four groups. To one group nothing was added (“Control”). To the second, third and fourth groups, Angiotensin II was added to the culture medium (“Ang”) to give a final concentration of 1.0 μM. The Angiotensin II was added to induce hypertrophy. To the third group, CBD was also added to give a concentration of 0.1 μM (“Ang+CBD 0.1 μM”). Finally, to the fourth group, CBD was also added to give a concentration of 1 μM (“Ang+CBD 1 μM”).
FIG. 1 contains representative confocal microscopy images of the H9c2 cells in each group. The images were obtained using a model with the same parameters and cell staining, to determine the surface area per cell, was achieved using calcein fluorescent dye. […] The results are summarized in FIG. 2, wherein each group comprises at least 3 independent replicates per group.

[6] = system: H9c2 cells; assay: Repeated H9c2 hypertrophy study: BNP and collagen mRNA, mitochondrial ROS (MitoSOX); type: cell-based
Experimental: The study was repeated using H9c2 cells grown in a culture medium divided into seven groups. To one group nothing was added (“CTRL”). To the second, fourth, fifth, sixth, and seventh groups, Angiotensin II was added to the culture medium (“ANG”) to give a final concentration of 1.0 μM. The Angiotensin II was added to induce hypertrophy. To the third group, CBD was added to give a concentration of 0.1 μM (“CBD 0.1 μM”) as an additional control group. CBD was also added to (a) the fourth group to give a concentration of 0.001 μM (“ANG+CBD 0.001 μM”), (b) the fifth group to give a concentration of 0.01 μM (“ANG+CBD 0.01 μM”), (c) the sixth group to give a concentration of 0.1 μM (“ANG+CBD 0.1 μM”), and, finally, (d) the seventh group to give a concentration of 1 μM (“ANG+CBD 1 μM”).

[7] = biological target: T1, CB2 receptor (Homo sapiens, UniProt P34972); conditions: literature (Proc Natl Acad Sci USA 2008); cited from earlier work
[8] = biological target: T1, CB2 receptor; conditions: literature (Proc Natl Acad Sci USA 2008); cited from earlier work; remark: listed apart in the source
[9] = CBD 1 mg/kg body weight subcutaneously
[10] = CBD 1 mg/kg subcutaneously once every 3 days
[11] = CBD 10 mg/kg subcutaneously once every 3 days
[12] = ANG+CBD 1 μM compared to ANG group
[13] = Angiotensin II 1.0 μM + CBD 0.001, 0.01, 0.1, 1 μM

T1 sequence (P34972 whole entry): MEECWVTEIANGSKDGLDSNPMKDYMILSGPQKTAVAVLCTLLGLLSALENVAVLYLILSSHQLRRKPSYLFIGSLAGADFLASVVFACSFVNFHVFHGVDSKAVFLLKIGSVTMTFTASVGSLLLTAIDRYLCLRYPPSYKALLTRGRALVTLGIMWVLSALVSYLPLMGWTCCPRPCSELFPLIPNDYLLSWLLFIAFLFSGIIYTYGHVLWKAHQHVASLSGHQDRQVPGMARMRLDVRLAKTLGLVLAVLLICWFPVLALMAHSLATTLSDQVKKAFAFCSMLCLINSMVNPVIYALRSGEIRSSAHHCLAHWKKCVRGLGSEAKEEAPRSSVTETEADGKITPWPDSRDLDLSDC

Compound: C=C(C)[C@@H]1CCC(C)=C[C@H]1c1c(O)cc(CCCCC)cc1O [CBD, cannabidiol]
- mRNA expression of IL10 [1, 9]: significantly increased
- mRNA expression of pro-inflammatory cytokine IL6 [1, 9]: significantly decreased
- cardiac fibrosis (Masson's Trichrome) [1, 10]: effective to reduce
- myocyte area (hypertrophy) [1, 10]: effective to reduce
- mRNA expression of BNP in heart tissue (qPCR) ([1]; CBD 1 mg/kg subcutaneously): significant reduction
- mRNA expression of pro-inflammatory cytokine IL6 ([1]; CBD 10 mg/kg body weight subcutaneously): significantly decreased
- cardiac fibrosis (Masson's Trichrome) [1, 11]: effective to reduce
- myocyte area (hypertrophy) [1, 11]: effective to reduce
- mRNA expression of BNP in heart tissue (qPCR) ([1]; CBD 10 mg/kg subcutaneously): significant reduction
- mRNA expression of pro-inflammatory cytokine IL1β ([1]; CBD subcutaneously, dose not given): trend to be reduced to control levels
- level of expression of CD69 by monocytes [2]: reduced the level of expression of CD69
- overall bioavailability [3]: less than 10%
- level of expression of CD69 by lymphocytes [4]: reduced the level of expression of CD69
- cell surface area of H9c2 cells ([5]; Angiotensin II 1.0 μM + CBD 0.1 μM): significantly smaller
- cell surface area of H9c2 cells ([5]; Angiotensin II 1.0 μM + CBD 1 μM): significantly smaller
- mRNA level of expression of collagen ([6]; ANG+CBD 0.1 μM compared to ANG group): significantly reduced
- mRNA level of expression of BNP [6, 12]: significantly reduced
- mRNA level of expression of collagen [6, 12]: significantly reduced
- mRNA level of expression of BNP [6, 13]: dose-dependent reduction
- mRNA level of expression of collagen [6, 13]: dose-dependent reduction
- Mitochondrial reactive oxygen species (ROS, MitoSOX) ([6]; Angiotensin II 1.0 μM + CBD at different doses): reduced down to control levels

Compound: C=C1CC/C=C(\C)CC[C@@H]2[C@@H]1CC2(C)C [β-caryophyllene, trans-(1R,9S)-8-Methylene-4,11,11-trimethylbicyclo[7.2.0]undec-4-ene]
- functional activity at CB2 [7]: functional CB2 agonist
- binding to the CB2 receptor [8]: selectively binds to the CB2 receptor
